From ChEMBL document CHEMBL1131175, “Use of papain as a model for the structure-based design of cathepsin K inhibitors: crystal structures of two papain-inhibitor complexes demonstrate binding to S'-subsites” (J Med Chem, 1998)

Target: T1, Papain (Carica papaya, UniProt P00784)
T1 sequence (P00784 whole entry): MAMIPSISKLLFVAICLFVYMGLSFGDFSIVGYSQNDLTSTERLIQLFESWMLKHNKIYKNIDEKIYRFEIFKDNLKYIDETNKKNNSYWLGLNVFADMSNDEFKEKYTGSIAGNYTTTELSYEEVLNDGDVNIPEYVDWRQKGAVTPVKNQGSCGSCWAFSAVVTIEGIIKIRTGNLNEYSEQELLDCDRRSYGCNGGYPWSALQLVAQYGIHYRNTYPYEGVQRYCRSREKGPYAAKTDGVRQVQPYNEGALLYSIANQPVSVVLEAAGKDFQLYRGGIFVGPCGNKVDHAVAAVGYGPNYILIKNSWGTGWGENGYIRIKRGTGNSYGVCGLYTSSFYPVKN
Test: Inhibitory activity measured against papain.
Conditions: read-out: Ki app

Ki: 10 µM
SMILES: CC(C)C[C@H](NC(=O)OCc1ccccc1)C(=O)NCC(=O)CNC(=O)[C@H](CC(C)C)NC(=O)OCc1ccccc1
